Results from patent US11312727B1, “Macrocyclic flu endonuclease inhibitors” (Janssen BioPharma, Inc., priority 2018, dated 2022).

How the values were obtained:
[1] = tested on: Influenza strain A549 A/WSN/33 (H1N1); experiment: microbe, parasite or virus in culture; assay type: cell-based; conditions: Influenza A virus, A549, 20 h, A549 cells, influenza A/WSN/33 (H1N1), 20 hours incubation; read-out: A549_A(H1N1) EC50
in vitro = conditions: human, CC50, uninfected A549 cells, CellTiter-Glo

Row | Compound | EC50 [1] | CC50 (in vitro)
1 | O=C1c2c(O)c(=O)ccn2N2CN1C/C=C\COc1cc(Cl)ccc1[C@H]2c1ccccc1 (single isomer, unassigned) [Compound 72A, (18*R,Z)-3-chloro-12-hydroxy-18-phenyl-6,9-dihydro-18H-10,17-methanobenzo[b]pyrido[1,2-f][1]oxa[5,6,9]triazacyclotridecine-11,13-dione] | > 1 µM | > 2 µM
2 | O=C1c2c(O)c(=O)ccn2N2CN1C/C=C\COc1cc(Cl)ccc1[C@@H]2c1ccccc1 (single isomer, unassigned) [Compound 72B, (18*S,Z)-3-chloro-12-hydroxy-18-phenyl-6,9-dihydro-18H-10,17-methanobenzo[b]pyrido[1,2-f][1]oxa[5,6,9]triazacyclotridecine-11,13-dione] | 0.008 µM | > 2 µM
3 | O=C1c2c(O)c(=O)ccn2N2CN1C/C=C\COc1c(ccc(F)c1F)[C@H]2c1ccccc1 (single isomer, unassigned) [Compound 74A, (18*R,Z)-3,4-difluoro-12-hydroxy-18-phenyl-6,9-dihydro-18H-10,17-methanobenzo[b]pyrido[1,2-f][1]oxa[5,6,9]triazacyclotridecine-11,13-dione] | > 1 µM | > 2 µM
4 | O=C1c2c(O)c(=O)ccn2N2CN1C/C=C\COc1c(ccc(F)c1F)[C@@H]2c1ccccc1 (single isomer, unassigned) [Compound 74B, (18*S,Z)-3,4-difluoro-12-hydroxy-18-phenyl-6,9-dihydro-18H-10,17-methanobenzo[b]pyrido[1,2-f][1]oxa[5,6,9]triazacyclotridecine-11,13-dione] | 0.002 µM | > 0.2 µM
5 | O=C1c2c(O)c(=O)ccn2N2CN1C/C=C\COc1c(Cl)cccc1[C@H]2c1ccccc1 (single isomer, unassigned) [Compound 75A, (18*R,Z)-4-chloro-12-hydroxy-18-phenyl-6,9-dihydro-18H-10,17-methanobenzo[b]pyrido[1,2-f][1]oxa[5,6,9]triazacyclotridecine-11,13-dione] | 0.269 µM | > 2 µM
6 | O=C1c2c(O)c(=O)ccn2N2CN1C/C=C\COc1c(Cl)cccc1[C@@H]2c1ccccc1 (single isomer, unassigned) [Compound 75B, (18*S,Z)-4-chloro-12-hydroxy-18-phenyl-6,9-dihydro-18H-10,17-methanobenzo[b]pyrido[1,2-f][1]oxa[5,6,9]triazacyclotridecine-11,13-dione] | 0.003 µM | > 0.2 µM
7 | O=C1c2c(O)c(=O)ccn2N2CN1CC/C=C/COc1cc(F)ccc1[C@@H]2c1ccccc1 (single isomer, unassigned) [Compound 77A, (7E,19*R)-3-fluoro-13-hydroxy-19-phenyl-9,10-dihydro-6H,19H-11,18-methanopyrido[2,1-i][1,7,10,11]benzoxatriazacyclotetradecine-12,14-dione] | 5.28 µM | 33.2 µM
8 | O=C1c2c(O)c(=O)ccn2N2CN1C/C=C/CCc1ccccc1[C@H]2c1cccc(F)n1 (single isomer, unassigned) [Compound 78B, (16*S,E)-16-(6-fluoropyridin-2-yl)-4-hydroxy-7,10,11,16-tetrahydro-6,17-methanobenzo[k]pyrido[1,2-b][1,2,5]triazacyclotridecine-3,5-dione] | 6.43 µM | 61.6 µM
9 | O=C1c2c(O)c(=O)ccn2N2CN1C[C@H]1C[C@@H]1COc1ccccc1[C@@H]2c1ccccc1 (single isomer, unassigned) [Compound 80AA, (1a*S,8*S,17a*S)-14-hydroxy-8-phenyl-1a,2,17,17a-tetrahydro-1H,8H-9,16-methanobenzo[b]cyclopropa[k]pyrido[1,2-f][1]oxa[5,6,9]triazacyclotridecine-13,15-dione] | 0.167 µM | > 1 µM
